Assay results: patent US20200352878A1, “USE OF CANNABINOIDS IN THE TREATMENT OF EPILEPSY” (priority 2018, published 2020)

Experiments:
[1] = Open-label, fixed sequence healthy volunteer drug-drug interaction trial of CBD and stiripentol (steady-state pharmacokinetics, safety); type: in vivo, human; conditions: healthy volunteers
Experimental: As part of an open-label, fixed sequence, healthy volunteer trial the primary objective was to investigate the impact of CBD (750 mg twice daily) on the steady-state pharmacokinetics of stiripentol (STP) (750 mg) and the reciprocal effect on CBD, 7-hydroxy-cannabidiol (7-OH-CBD) and 7-carboxy-cannabidiol (7-COOH-CBD).
Analyte plasma concentrations were determined using validated bioanalytical methods. A secondary objective was to evaluate the safety and tolerability of CBD when co-administered with STP.

[2] = tested on: convulsive seizures in patients with treatment-resistant Dravet syndrome; experiment: Clinical trial of adjunctive CBD in treatment-resistant Dravet syndrome; analysis of the interaction with concomitant AEDs; type: in vivo, human; conditions: for Percentage of patients with greater than 50% reduction in seizures: Dravet syndrome patients aged 2-18 years, convulsive seizures over treatment period vs 4-week baseline, CBD 20 mg/kg/day or placebo added to current AEDs
Experimental: Following completion of a 4-week baseline period, patients were randomized to receive either 20 mg/kg/day CBD (n=61) or placebo (n=59). CBD or placebo were added to their current anti-epileptic treatment which remained stable over the treatment period of the study.
Seizure counts were reported daily via an Interactive Voice Response System. Convulsive seizures were defined as all countable atonic, tonic, clonic, and tonic-clonic seizures. The primary efficacy end point was percent change from baseline in convulsive seizures.
During a 4-week baseline period, patients were required to have at least 4 convulsive seizures (tonic-clonic, clonic, tonic or atonic) while on stable AED therapy. Patients had previously failed a median of 4 prior AEDs and 93% were taking 2 or more concomitant AEDs during the trial. The most commonly used concomitant AEDs (>25% of patients) were clobazam, valproate, stiripentol, levetiracetam, and topiramate.
Following the trial statistical analysis was performed on the various patient groups to determine whether there was an interaction between any of the concomitant AEDs that the patients were taking.
Table 6 below describes the percentage of patients that recorded a 50% reduction in convulsive seizures over the treatment period.

[3] = CBD 750 mg twice daily, STP 750 mg, plasma

In the case of `C=C(C)[C@@H]1CCC(C(=O)O)=C[C@H]1c1c(O)cc(CCCCC)cc1O` [7-COOH-CBD, 7-carboxy-cannabidiol], the “reduction of exposure by co-administered STP” value [1, 3] is reported as 13%.

For `C=C(C)[C@@H]1CCC(CO)=C[C@H]1c1c(O)cc(CCCCC)cc1O` [7-OH-CBD, 7-hydroxy-cannabidiol], the “reduction of exposure by co-administered STP” value [1, 3] was 29%.

For `CC(C)(C)C(O)/C=C/c1ccc2c(c1)OCO2` (stereo not shown) [Stiripentol, stiripentol], the “Percentage of patients with greater than 50% reduction in seizures” value [2] was 14% and the “Percentage of patients with greater than 50% reduction in seizures” value ([2]; listed as stiripentol) was 14%.

For `C=C(C)[C@@H]1CCC(C)=C[C@H]1c1c(O)cc(CCCCC)cc1O` [CBD, cannabidiol], the “effect of co-administration of STP on CBD exposure” value [1, 3] was “no effect”, the “most common adverse event (AE)” value ([1]; CBD co-administered with STP) was “diarrhoea” and the “median percent change from baseline in reduction of convulsive seizures, compared with placebo” value ([2]; CBD 20 mg/kg/day group (n=61) vs placebo (n=59), p=0.0123) was “statistically superior to placebo”.
